Key:
[1] = Initial mouse tolerability experiment with beryllium and chelator; format: in vivo, mice; conditions: beryllium and chelator administration, 48-hour experiment
Description: LLNL-IBC#2004-029. Two sets of animal experiments were performed.

[2] = Site-300 beryllium oxide debris particle chelation (ICP-MS of filtrates); format: physicochemical; conditions: pH 7, equilibrated 3 days
Description: The aims of this investigation were not limited to the study of beryllium in biological fluids and systems. A good chelator in the body is likely a good chelator in the environment. […] Particles were obtained from the Contained Firing Facility (CFF) at LLNL Site 300. Approximately 500 mg of beryllium oxide debris was weighed in a tared polyethylene vials and varying concentrations of APMDP chelator (pH adjusted to pH 7) were added to each vial. The vials were left to stand for 3 days, with manual shaking performed for 2 minutes each, twice a day. Samples were then filtered through a 0.2 um membrane and filtrates were analyzed by ICP-MS.

[3] = in vivo; cited from earlier work
[4] = cited from earlier work

Compound	adverse effect on mice [1]	LD-50 [3] [mg/kg]	other results
NC(c1ccccc1)(P(=O)(O)O)P(=O)(O)O [APMDP, α-aminobenzyl-α,α,-diphosphoric acid]	did not adversely affect the mice	–	dissolution of insoluble BeO fines [2]: can be dissolved
NCc1ccccc1 [Benzylamine]	–	128	–
CC(c1ccccc1)N(C)C (centres unmarked) [N,N-dimethyl-a-methylbenzylamine]	–	420	–
CC(N)c1ccccc1 (centres unmarked) [a-methylbenzylamine]	–	940	–
O=P(O)(O)c1ccccc1 [phenylphosphonic acid]	–	–	toxic at [3]: 110 mg/kg; water solubility [4]: water soluble
O=S(=O)(O)c1cc(O)c(O)c(S(=O)(=O)O)c1 [tiron]	did not adversely affect the mice	–	–

Reference: patent US20070254827A1, “Alpha-aminobenzyl-alpha,alpha,-diphosphoric acid selective chelation of beryllium” (priority 2006, published 2007)
